{"source": "patent US20200046720A1", "about": "“ENGINEERED BIOCOMPATIBLE ANTIBIOTIC PARTICLES AND THEIR USE AGAINST URINARY TRACT INFECTION” (The University of North Carolina at Chapel Hill, priority 2016, published 2020)", "key": {"[1]": {"test_system": "E. coli UT189", "test": "Tissue culture-based microbial inhibition assay, intracellular E. coli infection of bladder epithelial cells", "type": "cell-based, Escherichia coli", "conditions": "cultured bladder epithelial cells", "procedure": "FIGS. 3A-D show PRINT-Levofloxacin provides prolonged protection against intracellular E. coli infection. UROTSA bladder epithelial cell monolayers were incubated with media, free levofloxacin (FREE LEVO), blank PRINT particles (BLANK PRINT), or a formulation of PRINT encapsulated levofloxacin (PRINT-LEVO) for 1 hour. Each treatment was removed, the cells were washed, and the cells were immediately infected with E. coli UT189 (FIG. 3A), 8 hours later (FIG. 3B), or 18 hours later (FIG. 3C). After 1 hour of infection with E. coli, the medium was replaced with medium containing gentamicin to eliminate extracellular bacteria. Viable bacteria in the bladder epithelial cells were enumerated 24 hours later. The formulations and associated sizes and charges are shown for reference (FIG. 3D). Tissue culture-based microbial inhibition assays-Bladder epithelial cell lines 5637 and UROTSA have been previously described. Tissue culture cells were growth in RPMI 1640 media to 80% confluence and lifted using trypsin-EDTA (Sigma-Aldrich). Twenty four well plates (Genesee Scientific) were seeded with 5637 cells and grown for 2 days at 37° C., 5% CO2 prior to infections. Where appropriate to the assay conditions, unencapsulated (“free”) levofloxacin was added to the wells one hour prior to infection and at the same concentration as wells treated with PRINT-levofloxacin particles. […]"}, "[2]": {"test_system": "E. coli UT189", "test": "Rat spinal cord injury UTI infection model", "type": "in vivo, Escherichia coli", "conditions": "female SCI rats, single intracystic dose, drained after 1 hour, infected 8 hours later, bladder and kidney", "procedure": "FIGS. 6A-C show PRINT-LEVO provides sustained protection against E. coli UTI in the SCI rat. Female SCI rats were treated by transurethral catheterization and instillation of a volume equivalent to their previously determined residual urine volume containing PBS, PBS with free levofloxacin (5 μg/ml), PRINT-LEVO (formula D5), or BLANK PRINT particles (wt/vol equivalent to PRINT-LEVO). After 1 hour of treatment, all animals had their bladder creded to remove each treatment. The animals were infected with E. coli at increasing time intervals following the administration and drainage of the test or control agents from the bladder: 4 hours (FIG. 6A), 8 hours (FIG. 6B), or 18 hours (FIG. 6C). Bacteria were counted in the bladders and kidneys 24 hours after infection with E. coli by tissue homogenization and plating of dilutions on solid agar medium. Horizontal bars indicate the geometric means.\nAs described previously, female Sprague-Dawley rats (Harlan; 175-200 gm) underwent controlled surgical T10 spinal cord transection to model spinal cord injury and produce a neurogenic bladder phenotype. […] Due to the spinal cord injury and subsequent neurogenic bladder phenotypes, animals were routinely monitored and creded to relieve urinary retention each 12 hours. […]"}}, "data": [{"smiles": "C[C@H]1COc2c(N3CCN(C)CC3)c(F)cc3c(=O)c(C(=O)O)cn1c23", "note": "[free levofloxacin, levofloxacin]", "values": [{"measurement": "time to loss of significant effectiveness after a single dose", "setting": "[1]", "value": "≤ 1", "unit": "h"}, {"measurement": "protection against E. coli infection (animals infection-free), 8 hour delay", "setting": "[2]", "value": 12.5, "unit": "%"}]}]}
